According to patent EP2246037A2, “Anti-aging and whitening properties of quercetin, 18a-glycyrrhetinic acid, hederagenin and its derivatives” (Korres S.A. Natural Products, priority 2009, dated 2010):

What was measured:
HFL-1 HDFs = experiment: Cell survival with or without oxidative stress; assay type: cell-based, human; settings: for higher survival rate as compared to control cultures: 300 µM H2O2 for 2.5 h, then additional 24 h in culture; for survival to an oxidative stress challenge: summary, versus control cells
[1] = test system: proteasome subunits (β5, α7); experiment: Immunoblot of proteasome subunit levels in treated cells; assay type: cell-based, human; settings: 24 h treatment
[2] = test system: middle aged and terminally senescent HFL-1 HDFs; experiment: Reversal of senescent phenotype: cell number, morphology and β-galactosidase staining after 1 week of treatment; assay type: cell-based, human; settings: for proliferation (number of cells) / β-galactosidase activity staining: 1 week; for morphology and proliferation: summary of section 3, middle aged or terminally senescent cells
Protocol: The steps, methods and results that were obtained regarding the anti-aging properties of the examined substances are the following: • 1) Study of the lifespan of human diploid fibroblasts in vitro in the presence of the substances. • 1.1. HFL-1 human diploid fibroblasts (HDFs) were used in in vitro conditions (growth at 37°C, 5% CO2 and 95% humidity). • 1.2. The cells were maintained in Dulbecco's modified Eagle's medium (DMEM ®; Invitrogen Life Technologies Inc.) supplemented with 10% (v/v) fetal calf serum, 100 Units/ml penicillin, 100 µg/ml strepromycin, 2 mM glutamine and 1% (v/v) non-essential amino acids (complete medium). • 1.3. The cells were constantly cultured in culture medium supplemented with the substances [final concentration for quercetin (QUER), 18α-glycyrrhetinic acid (18α GA), and hederagenin (HED): 2 µg/ml and for quercetin caprylate (QU-CAP) three concentrations were applied: 0.5, 2 and 5 µg/ml]. Quercetin, 18α-glycyrrhetinic acid and hederagenin were diluted in DMSO (dimethyl sulfoxide) whereas quercetin caprylate was diluted in caprilic/capric triglycerides (CAP). Therefore, the control cultures were incubated in medium supplemented with 0.1% DMSO or 0.1% CAP. • 1.4. The cells were replenished with fresh media supplemented with the substances or the diluents every 24 h and their numbers were examined using a Coulter Z2 ® counter (Coulter Corporation) until they reached senescence (approximately after 13 weeks). The cumulative population doublings performed by each culture were calculated using the following formula: CPD=Σ[PD] where PD=LOG[Nfinal/Ninitial]/LOG[2], where N final represents the number of cells that were measured when each culture reached confluence and N initial represents the number of cells that was initially seeded. • 1.5. Photographs of the cells maintained in cell culture and treated with the various substances for the same time period were taken. • 1.6. […] More specifically, cells that were incubated with quercetin caprylate gave up to 2.8% more population doublings as compared to the population doublings performed by the relative control cultures. Cells that were incubated with the other substances gave up to 2.9% more population doublings as compared to their relative control cultures. • 1.7. […] Cells that were treated with either of the tested substances maintained the young morphology for longer as compared to the control cultures (DMSO-treated and CAP-treated). […] HFL-1 HDFs were cultured as described in 1.1-1.4 for 10 consecutive weeks and were then subjected to β-galactosidase activity staining. • 1.2. Briefly, 10^5 cells from each culture were seeded in 6-well plates. After 24 h cells were washed with PBS (phosphate buffered saline), fixed in 0.2% glutaraldehyde and 2% formaldehyde for 5 min, washed again with PBS, and finally stained for 24 h at 37 °C in the absence of CO2, in staining solution (150 mM NaCl, 2 mM MgCl2, 5 mM K3Fe(CN)6, 40 mM citric acid, and 12 mM sodium phosphate, pH 6.0) containing 1 mg/ml 5-bromo-4-chloro-3-indolyl-β-D-galactoside. Photographs were then taken. • 1.3. […] HFL-1 HDFs that have senesced in vitro were used (growth at 37°C, 5% CO2 and 95% humidity). More specifically, middle aged HFL-1 HDFs (cpd 59) and terminally senescent HFL-1 HDFs (cpd 65) that had senesced in the absence of any substance were used. • 3.2. The cells were seeded and maintained in complete medium (see 1.2). Culture medium supplemented with the substances [final concentration for quercetin (QUER), 18α-glycyrrhetinic acid (18α GA), and hederagenin (HED): 2 µg/ml and for quercetin caprylate (QU-CAP) three concentrations were applied: 0.5, 2 and 5 µg/ml] or the diluents (0.1% DMSO or 0.1% CAP) were added 24 h later. The cells were replenished with fresh media supplemented with the substances or the diluents every 24 h for 1 week and their numbers were then examined using a Coulter Z2 ® counter (Coulter Corporation). • 3.3. […]

[3] = test system: Mouse melanocytes (B10F16 cell line); experiment: Cellular whitening of melanocytes (cell pellet photographs); assay type: cell-based; settings: 72 h
Protocol: The steps, methods and results that were obtained regarding the whitening properties of the examined substances are the following: • A) Cellular whitening of melanocytes. • A.1. Mouse melanocytes (B10F16 cell line) were used in in vitro conditions (growth at 37°C, 5% CO2 and 95% humidity). • A.2. The cells were maintained in Dulbecco's modified Eagle's medium (DMEM®; Invitrogen Life Technologies Inc.) supplemented with 10% (v/v) fetal calf serum, 100 Units/ml penicillin, 100 µg/ml strepromycin, 2 mM glutamine and 1% (v/v) non-essential amino acids (complete medium). • A.3. 10^5 cells were seeded in petri dishes and the following day they were fed with medium supplemented with the substances [final concentration for all substances: 5 µg/ml and 10 µg/ml]. Quercetin (QUER), 18α-glycyrrhetinic acid (18α GA) and hederagenin (HED) were diluted in DMSO whereas quercetin caprylate was diluted in caprilic/capric triglycerides (CAP). Therefore, the control cultures were incubated in medium supplemented with 0.1% DMSO or 0.1% CAP. The media were replenished every 24 h and the cells were kept under these conditions constantly for 72 h. Cells were then collected and pelleted and the cell pellet was photographed. • A.4. […] The result was positively correlated to the concentration of quercetin used. • B) Detection of tyrosinase expression. • B.1. Mouse melanocytes were cultured as described in A.1.-A.3. After 72 h of treatment, the cells were collected, lysed and proteins were extracted and subjected to SDS-PAGE followed by immunoblot analysis against tyrosinase. Protein concentrations were determined using the Bradford method with BSA as a standard. • B.2.
Photographs of pellet of melanocytes that were treated with the substances for 72 h.

[4] = middle aged cells (cpd 59), 2 µg/ml, quercetin caprylate 0.5, 2 and 5 µg/ml
[5] = middle aged cells, 2 µg/ml, quercetin caprylate all three concentrations
[6] = terminally senescent cells (cpd 65), 2 µg/ml, quercetin caprylate 2 and 5 µg/ml
[7] = terminally senescent cells, quercetin 2 µg/ml, quercetin caprylate higher concentrations

Row | Compound | higher survival rate as compared to control cultures (HFL-1 HDFs) | higher survival rate as compared to diluent-treated cells (HFL-1 HDFs; 24 h treatment, no oxidative stress) | survival to an oxidative stress challenge (HFL-1 HDFs) | protein levels of proteasome subunits (β5, α7) [1] | proliferation (number of cells) [2, 4] | β-galactosidase activity staining [2, 5] | morphology and proliferation [2] | whitening of melanocyte pellet ([3]; lower concentration (5 µg/ml)) | proliferation (number of cells) [2, 6] | β-galactosidase activity staining [2, 7] | whitening effect compared to the other substances ([3]; 5 µg/ml and 10 µg/ml) | whitening of melanocyte pellet ([3]; both concentrations (5 µg/ml and 10 µg/ml))
1 | CC1(C)[C@@H](O)CC[C@]2(C)[C@H]3C(=O)C=C4[C@H]5C[C@@](C)(C(=O)O)CC[C@]5(C)CC[C@@]4(C)[C@]3(C)CC[C@@H]12 [18α-glycyrrhetinic acid] | 2% | 3.5% | survived better | similar | higher proliferation rates | less positive to β-galactosidase activity staining | regained a younger morphology and were induced to limited but significant proliferation | whitening potential | – | – | – | –
2 | CC1(C)CC[C@]2(C(=O)O)CC[C@]3(C)C(=CC[C@@H]4[C@@]5(C)CC[C@H](O)[C@@](C)(CO)[C@@H]5CC[C@]43C)[C@@H]2C1 [Hederagenin] | – | – | – | did not detect any up-regulation | – | – | – | whitening potential | – | – | – | –
3 | O=c1c(O)c(-c2ccc(O)c(O)c2)oc2cc(O)cc(O)c12 [Quercetin] | ≤ 14.5% | – | survived better | elevated protein levels | higher proliferation rates | less positive to β-galactosidase activity staining | regained a younger morphology and were induced to limited but significant proliferation | – | limited but sigmificant cell proliferation | many of those cells were negative for β-gatactosidase activity | notably more intensed | whitening potential
4 | quercetin caprylate | ≤ 14.5% | – | survived better | elevated protein levels | higher proliferation rates | less positive to β-galactosidase activity staining | regained a younger morphology and were induced to limited but significant proliferation | – | limited but sigmificant cell proliferation | many of those cells were negative for β-gatactosidase activity | – | –
